Measurements as given in patent US20060204481A1, “Methods of promoting cell viability” (priority 2003, published 2006).

Key:
3-NP-lesioned rat = conditions: systemic administration; cited from earlier work
6-OHDA lesioned rats = assay: Amphetamine-induced rotation test after nigral grafting in unilateral 6-OHDA lesioned rats; type: in vivo, rat
Description: A total of 24 adult female Sprague-Dawley (SD) rats, weighing about 250 grams (g) at the beginning of the experiments were used as subjects of neural grafts. Among them, 12 rats were subjected to an extensive unilateral 6-hydroxydopamine (6-OHDA) lesion of the mesostriatal dopamine (DA) system and 12 rats were normal.
The 6-OHDA lesioned rats and normal rats were randomly assigned to the TUDCA-treated (n=6 in each group) or the vehicle control (n=6 in each group) group, respectively. The rats were housed 2 per cage under a 12 hour day-night cycle with ad libitum access to food and water. They were maintained and treated in accordance with published National Institutes of Health guidelines.
For the TUDCA-treated rats, a 50 μM concentration of TUDCA was added to the media when nigral tissue was trypsinized and dissociated. Two microliters of cell suspension containing TUDCA were then stereotaxically injected into the striatum of SD rats. For the control animals, the same amount of vehicle solution was added to the media. In the first series of transplantation experiment, normal rats that received neural transplants were sacrificed 4 days post-grafting and brain sections were prepared for the terminal deoxynucleotidyl transferase (TdT)-mediated dUTP-biotin nick end labeling (TUNEL) assay to determine apoptosis in the transplantation areas. In the second series of transplantation experiments, an amphetamine-induced rotation test was used to assess the completeness of the 6-OHDA lesions prior to grafting, and repeated two and six weeks after transplantation to monitor functional effects of the neural grafts. The rats were sacrificed after the last session of the rotational behavioral test and the brain tissue was processed for tyrosine hydroxylase (TH)-immunocytochemistry. Graft survival was assessed by counting the number of TH-positive neurons in the grafts.
Two injections of 6-OHDA (hydrochloride salt, Sigma, St. Louis Mo.) were made into the right ascending mesostriatal DA pathway under equithesin anaesthesia (0.3 ml/100 g body wt. i.p.) as described previously (W.-M. Duan et al., Neuroscience 57:261-274; 1993). Briefly, a first injection of 2.5 microliter (μl) of 6-OHDA (3 microgram/microliter (μg/μl), free base, in 0.2 mg/ml ascorbate-saline) was performed at the following coordinates: 4.4 millimeter (mm) caudal to bregma; 1.2 mm lateral to midline; 7.8 mm ventral to the dural surface; with the tooth-bar set at 2.4 mm below the interaural line. A second injection of 2 μl of 6-OHDA was performed at the following coordinates; 4.0 millimeter (mm) caudal to bregma; 0.8 mm lateral to midline; 8.0 mm ventral to the dural surface; with the tooth-bar set at 3.4 mm above the interaural line. The 6-OHDA was infused at a rate of 1 μl/min, and the cannula was left in place for an additional 4 min before it was withdrawn.
Two to three weeks after the lesion surgery, the rats were given 5 milligram per kilogram (mg/kg) of d-amphetamine sulphate (Sigma, St. Louis Mo.) in saline, i.p. and their rotational behavior was monitored in automated rotometer bowls for 90 min (U. Ungerstedt et al., Brain Res. 24: 485-493; 1970). […] The rotational test was then repeated at two different time-points as mentioned in the experimental design.
A cell suspension technique was used to perform the neural transplants as previously described (A. Björklund et al., Acta. Physiol. Scand. Suppl. 522:9-18; 1983; P. Brundin et al., In: P. M. Conn, ed., Methods in Neurosciences, Lesions and Transplantation, Academic Press, San Diego, Vol 7, 1991:305-326). Briefly, VM tissue was obtained from embryos with a crown-to-rump length of 13-14 mm, corresponding to a gestational age of embryonic day 14. Dissection and preparation of the donor tissue were carried out under aseptic conditions in Hank's balanced salt solution (HBSS) (Gibco, Carlsbad, Calif.). […]

pancreatic islet cells = assay: Apoptosis (TUNEL) of pancreatic islet cells in vitro; type: cell-based; conditions: 2 days in vitro
Protocol: As another example, TUDCA was also effective in reducing apoptosis of pancreatic islet cells after 2 days in vitro. The number of TUNEL-positive cells was approximately 29 in non-treated controls, but only 12 in cells exposed to TUDCA. The more than 50% reduction by apoptosis by TUDCA was achieved after exposure of cells to TUDCA during the isolation procedure, followed by incubation with the bile acid during culture in vitro.

striatal tissue cultures = conditions: cited from earlier work
[1] = system: TUNEL-positive cells in VM tissue cultures; assay: TUNEL assay of apoptosis in VM tissue cultures; type: cell-based, rat; conditions: 50 μM TUDCA, p<0.01
Protocol: In order to examine the effects of TUDCA on apoptosis and the survival of dopamine neurons in VM tissue cultures under serum-free conditions and to determine an appropriate dosage of TUDCA, primary neuronal cultures were prepared from the VM tissue of SD rat embryos and incubated with or without the addition of TUDCA (Calbiochem, La Jolla, Calif., free base, dissolved in 0.15M (where “M” is molar concentration) NaHCO3 buffer). […] Therefore, TUDCA was added to a final concentration of 50 μM to the culture medium when the culture medium was switched to serum-free conditions after two days in vitro. Neural survival and apoptosis were determined by counting TH-positive cells and TUNEL-positive cells in the cultures two or seven days in vitro. […]
For each experimental series, pooled VM tissue from 24-32 embryos was incubated in 0.1% trypsin (Sigma, St. Louis, Mo.)/0.05% DNase (Sigma, St. Louis Mo.) at 37 degrees Celsius (° C.) for 20 minutes (min), and mechanically dissociated using a 1 milliliter (ml) Gilson pipette. […] The cell number and viabilities of dissociated cells were assessed with a hemocytometer using trypan blue dye exclusion. […]
For the cell culture experiments, the number of TUNEL-positive cells was assessed at ×400 magnification with the aid of a 400-μm square, reticule grid. […] Average number of TUNEL-positive cells was calculated and represented a value for single animals.

[2] = system: TH-positive neurons and total cells in ventral mesencephalic (VM) tissue cultures; assay: Dopamine neuron survival in serum-free ventral mesencephalic tissue cultures (TH-positive and total cell counts); type: cell-based, rat
Protocol: In order to examine the effects of TUDCA on apoptosis and the survival of dopamine neurons in VM tissue cultures under serum-free conditions and to determine an appropriate dosage of TUDCA, primary neuronal cultures were prepared from the VM tissue of SD rat embryos and incubated with or without the addition of TUDCA (Calbiochem, La Jolla, Calif., free base, dissolved in 0.15M (where “M” is molar concentration) NaHCO3 buffer). […] Therefore, TUDCA was added to a final concentration of 50 μM to the culture medium when the culture medium was switched to serum-free conditions after two days in vitro. Neural survival and apoptosis were determined by counting TH-positive cells and TUNEL-positive cells in the cultures two or seven days in vitro. A total of three separate series of cell culture experiments were performed.
For each experimental series, pooled VM tissue from 24-32 embryos was incubated in 0.1% trypsin (Sigma, St. Louis, Mo.)/0.05% DNase (Sigma, St. Louis Mo.) at 37 degrees Celsius (° C.) for 20 minutes (min), and mechanically dissociated using a 1 milliliter (ml) Gilson pipette. Following dissociation, the cells were centrifuged at 600 rotation per minute (rpm) for 5 min and the pellet was resuspended in Dulbecco's Modified Eagle's Medium (DMEM) (Gibco, Carlsbad, Calif.). The cell number and viabilities of dissociated cells were assessed with a hemocytometer using trypan blue dye exclusion. The number of 100,000 cells/cm^2 (178,000 cells per well) were plated on to four-well chamber slides (Nunc, Rochester, N.Y.) precoated with […] poly-d-lysine (Sigma, St. Louis Mo.). The viabilities of dissociated cells were over 95%. Cell cultures were incubated for 2 days in DMEM supplemented with 10% fetal calf serum at 37° C. in a 95% air/5% CO^2 humidified atmosphere. After 2 days in vitro, the culture medium was switched to serum-free N2 medium, consisting of DMEM/Ham's F 12(1:1) mixture (Gibco, Carlsbad, Calif.).
At this time point, some cultures were supplemented with TUDCA. […]

[3] = system: TUNEL-positive cells in the grafted areas; assay: TUNEL assay of apoptosis in graft areas 4 days post-transplantation; type: in vivo, rat; conditions: normal rats, p<0.01
Protocol: For the TUDCA-treated rats, a 50 μM concentration of TUDCA was added to the media when nigral tissue was trypsinized and dissociated. Two microliters of cell suspension containing TUDCA were then stereotaxically injected into the striatum of SD rats. For the control animals, the same amount of vehicle solution was added to the media. In the first series of transplantation experiment, normal rats that received neural transplants were sacrificed 4 days post-grafting and brain sections were prepared for the terminal deoxynucleotidyl transferase (TdT)-mediated dUTP-biotin nick end labeling (TUNEL) assay to determine apoptosis in the transplantation areas. […] Graft survival was assessed by counting the number of TH-positive neurons in the grafts.
A cell suspension technique was used to perform the neural transplants as previously described (A. Björklund et al., Acta. Physiol. Scand. Suppl. 522:9-18; 1983; P. Brundin et al., In: P. M. Conn, ed., Methods in Neurosciences, Lesions and Transplantation, Academic Press, San Diego, Vol 7, 1991:305-326). […] Before and after transplantation, the viabilities of the cell suspensions were assessed by the trypan blue dye exclusion method. […]

[4] = system: TH-immunoreactive neurons in intrastriatal nigral grafts; assay: Graft survival: TH-immunocytochemistry and graft volume 6 weeks after transplantation; type: in vivo, rat

## C[C@H](CCC(=O)NCCS(=O)(=O)O)[C@H]1CC[C@H]2[C@@H]3[C@@H](O)C[C@@H]4C[C@H](O)CC[C@]4(C)[C@H]3CC[C@]12C [TUDCA, tauroursodeoxycholic acid]
3-NP-lesioned rat
  neurological deficits: ameliorate neurological deficits
  striatal degeneration: reduce striatal degeneration
6-OHDA lesioned rats; 2 weeks after grafting, p<0.01, not in control group
  mean net rotation values compared to pregrafting values: significantly reduced
6-OHDA lesioned rats; 2 weeks after transplantation, cell suspension pre-treated with 50 μM TUDCA, none of the control animals
  rats exhibiting at least 50% reduction in net motor asymmetry compared to pre-transplantation values: 4 of 6
6-OHDA lesioned rats; 2 weeks after transplantation, p<0.05
  net asymmetry values compared to control group: lower net asymmetry values than the control group
6-OHDA lesioned rats; 6 weeks after surgery, p<0.05, both groups
  motor asymmetry scores compared to pregrafting: significantly reduced motor asymmetry scores
6-OHDA lesioned rats; 6 weeks after surgery, p>0.05
  difference in motor asymmetry scores between TUDCA-treated and control groups: not longer any difference
6-OHDA lesioned rats; 6 weeks following transplantation, all rats of both control and TUDCA-treated groups
  reduction in motor asymmetry scores: > 50%
Pancreatic islet cells; TUDCA during isolation and culture, non-treated controls approximately 29
  number of TUNEL-positive cells: 12
Pancreatic islet cells; versus non-treated controls
  reduction of apoptosis: more than 50%
Striatal tissue cultures
  3-nitropropionic acid (3-NP)-mediated neuronal cell death: significantly reduces
[1]
  number of TUNEL-positive cells, 7 DIV control versus 7 DIV TUDCA-treated cultures: significantly higher in 7 DIV control cultures
[2]; 50 μM TUDCA added at switch to serum-free medium after 2 days in vitro, counted at 7 DIV, p>0.05
  number of TH-positive cells, TUDCA-treated cultures compared with 2DIV cultures: No difference
[2]; 7DIV TUDCA-treated cultures, serum-free, 7 DIV control had only 30% of 2 DIV TH-positive neurons
  cell loss of TH-positive neurons and total cells: not observed
[2]; VM tissue cultures, serum-free
  dose dependence of neural protective effect: dose-dependent manner
[3]
  number of apoptotic (TUNEL-positive) cells in the grafted areas compared to control group: significantly smaller
[4]
  areas of the host striatum reinnervated by the grafts compared to control group: larger
[4]; p<0.05
  graft volume compared to control group: significantly larger
